# Data: patent US7960556B2, “Thiadiazole derivatives for the treatment of neuro-degenerative diseases” (NV reMYND, priority 2006, dated 2011)
# pEC50: −log10 of the molar value.
# Tested on: α-synuclein cytotoxicity in M17-SYNwt cells
# Test: α-synuclein cytotoxicity assay: LDH leakage from paraquat-treated M17-SYNwt neuroblastoma cells;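 also: paraquat at 32 mM co-added with compound, 40 h exposure, LDH activity released into the culture medium measured, references are DMSO-only cells and paraquat plus DMSO cells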
# Settings: Homo sapiens, Neuroblastoma cell; for Emax: read-out: % Inhib.
Compound,Emax,pEC50
"Cc1ccc(C(=O)N2CCN(c3nc(Cc4ccc(F)cc4)ns3)CC2C)cc1[N+](=O)[O-] (centres unmarked) [compound 172, 1-(3-nitro-4-methylbenzoyl)-4-[3-(4-fluorobenzyl)-1,2,4-thiadiazol-5-yl]-2-methylpiperazine]",86%,–
"O=C(NCCN1CCN(c2nc(Cc3ccc(F)cc3)ns2)CC1)c1ccc(F)cc1 [compound 102, 4-fluoro-N-{2-[4-[3-(4-fluorobenzyl)-1,2,4-thiadiazol-5-yl]piperazin-1-yl]ethyl}benzamide]",80%,5.70
"Fc1ccc(Cc2nsc(N3CCN(c4ccccc4F)CC3)n2)cc1 [compound 187, 1-(2-fluorophenyl)-4-[3-(4-fluorobenzyl)-1,2,4-thiadiazol-5-yl]piperazine]",83%,5.55
"CCOc1ccc(S(=O)(=O)N2CCN(c3nc(Cc4ccc(F)cc4)ns3)CC2)cc1 [compound 196, 1-[4-ethoxyphenylsulfonyl]-4-[3-(4-fluoro-benzyl)-1,2,4-thiadiazol-5-yl]piperazine]",42%,7.75
"Cc1ccc(Cc2nsc(N3CCN(S(=O)(=O)c4ccc(C(C)(C)C)cc4)C(C)C3)n2)cc1 (centres unmarked) [compound 42, 1-[4-tert-butylphenylsulfonyl]-4-[3-(4-methylbenzyl)-1,2,4-thiadiazol-5-yl]-2-methylpiperazine]",33%,6.06
"Cc1ccccc1C(=O)N1CCN(c2nc(Cc3ccc(F)cc3)ns2)CC1C (centres unmarked) [compound 140, 1-(2-methylbenzoyl)-4-[3-(4-fluorobenzyl)-1,2,4-thiadiazol-5-yl]-2-methylpiperazine]",56%,6.35
"Cc1ccc(NC(=O)N2CCN(c3nc(Cc4ccc(F)cc4)ns3)CC2C)c(C)c1 (centres unmarked) [compound 20, N-(2,4-dimethylphenyl)-4-[3-(4-fluorobenzyl)-1,2,4-thiadiazol-5-yl]-2-methylpiperazine-1-carboxamide]",106%,6.12
"CC1CN(c2nc(Cc3ccc(F)cc3)ns2)CCN1C(=O)Cc1ccccc1 (centres unmarked) [compound 5, 1-phenylacetyl-4-[3-(4-fluorobenzyl)-1,2,4-thiadiazol-5-yl]-2-methylpiperazine]",83%,–
"Cc1ccc(Cc2nsc(N3CCN(S(=O)(=O)c4ccc5ccccc5c4)CC3)n2)cc1 [compound 65, 1-[2-naphtylsulfonyl]-4-[3-(4-methylbenzyl)-1,2,4-thiadiazol-5-yl]piperazine]",78%,7.41
"O=C(NCCN1CCN(c2nc(Cc3ccc(F)cc3)ns2)CC1)c1cc(Cl)cc(Cl)c1 [compound 98, 3,5-dichloro-N-{2-[4-[3-(4-fluorobenzyl)-1,2,4-thiadiazol-5-yl]piperazin-1-yl]ethyl}benzamide]",102%,5.85
"Fc1ccc(Cc2nsc(N3CCN(c4cccc(C(F)(F)F)c4)CC3)n2)cc1 [compound 188, 1-(3-trifluoromethylphenyl)-4-[3-(4-fluorobenzyl)-1,2,4-thiadiazol-5-yl]piperazine]",96%,–
"COc1ccc(NC(=O)N2CCN(c3nc(Cc4ccc(F)cc4)ns3)CC2)c(OC)c1 [compound 27, N-(2,4-dimethoxyphenyl)-4-[3-(4-fluorobenzyl)-1,2,4-thiadiazol-5-yl]piperazine-1-carboxamide]",67%,–
"O=C(c1ccccc1)N1CCN(c2nc(Cc3ccc(F)cc3)ns2)CC1 [compound 181, 1-benzoyl-4-[3-(4-fluorobenzyl)-1,2,4-thiadiazol-5-yl]piperazine]",60%,–
"CC1CN(c2nc(Cc3ccc(F)cc3)ns2)CCN1C(=O)Nc1cccc2ccccc12 (centres unmarked) [compound 25, N-1-naphtyl-4-[3-(4-fluorobenzyl)-1,2,4-thiadiazol-5-yl]-2-methylpiperazine-1-carboxamide]",97%,5.77
"Cc1ccc(Cc2nsc(N3CCN(C(=O)c4ccc(Br)cc4)CC3)n2)cc1 [compound 164, 1-(4-bromobenzoyl)-4-[3-(4-methylbenzyl)-1,2,4-thiadiazol-5-yl]piperazine]",60%,5.41
"COc1ccc(S(=O)(=O)N2CCN(c3nc(Cc4ccc(F)cc4)ns3)CC2)cc1 [compound 74, 1-[4-methoxyphenylsulfonyl]-4-[3-(4-fluorobenzyl)-1,2,4-thiadiazol-5-yl]piperazine]",44%,9.98
"CC1CN(c2nc(Cc3ccc(F)cc3)ns2)CCN1C(=O)Nc1ccc(F)c(F)c1 (centres unmarked) [compound 26, N-(3,4-difluorophenyl)-4-[3-(4-fluorobenzyl)-1,2,4-thiadiazol-5-yl]-2-methylpiperazine-1-carboxamide]",70%,–
"CCCCc1ccc(C(=O)N2CCN(c3nc(Cc4ccc(C)cc4)ns3)CC2)cc1 [compound 182, 1-(4-butylbenzoyl)-4-[3-(4-methylbenzyl)-1,2,4-thiadiazol-5-yl]piperazine]",57%,–
"Cc1ccc(Cc2nsc(N3CCN(S(=O)(=O)c4cccc5cccnc45)CC3)n2)cc1 [compound 70, 1-[quinoline-8-sulfonyl]-4-[3-(4-methylbenzyl)-1,2,4-thiadiazol-5-yl]piperazine]",44%,–

Compound,Emax,pEC50
"O=C(Nc1ccccc1C(F)(F)F)N1CCN(c2nc(Cc3ccc(F)cc3)ns2)CC1 [compound 17, N-(2-trifluoromethylphenyl)-4-[3-(4-fluorobenzyl)-1,2,4-thiadiazol-5-yl]piperazine-1-carboxamide]",46%,–
"CC1CN(c2nc(Cc3ccc(F)cc3)ns2)CCN1C(=O)c1ccc(F)cc1 (centres unmarked) [compound 127, 1-(4-fluorobenzoyl)-4-[3-(4-fluorobenzyl)-1,2,4-thiadiazol-5-yl]-2-methylpiperazine]",108%,6.64
"Cc1ccccc1NC(=O)N1CCN(c2nc(Cc3ccc(F)cc3)ns2)CC1 [compound 15, N-(2-methylphenyl)-4-[3-(4-fluorobenzyl)-1,2,4-thiadiazol-5-yl]piperazine-1-carboxamide]",65%,5.30
"Cc1ccc(Cc2nsc(N3CCN(S(=O)(=O)c4cc(Cl)ccc4Cl)C(C)C3)n2)cc1 (centres unmarked) [compound 36, 1-[2,5-dichlorophenylsulfonyl]-4-[3-(4-methylbenzyl)-1,2,4-thiadiazol-5-yl]-2-methylpiperazine]",52%,7.00
"CC1CN(c2nc(Cc3ccc(F)cc3)ns2)CCN1C(=O)/C=C/c1ccccc1 (centres unmarked) [compound 87, 1-[(2E)-3-phenylprop-2-enoyl]-4-[3-(4-fluorobenzyl)-1,2,4-thiadiazol-5-yl]-2-methylpiperazine]",94%,5.60
"Cc1ccc(Cc2nsc(N3CCN(C(=O)c4ccc(C(C)(C)C)cc4)CC3)n2)cc1 [compound 183, 1-(4-tert-butylbenzoyl)-4-[3-(4-methylbenzyl)-1,2,4-thiadiazol-5-yl]piperazine]",52%,–
"Cc1ccc(Cc2nsc(N3CCN(C(=O)c4ccc(C(F)(F)F)cc4)CC3)n2)cc1 [compound 171, 1-(4-trifluoromethylbenzoyl)-4-[3-(4-methylbenzyl)-1,2,4-thiadiazol-5-yl]piperazine]",86%,–
"CCc1ccc(S(=O)(=O)N2CCN(c3nc(Cc4ccc(F)cc4)ns3)CC2)cc1 [compound 197, 1-[4-ethylphenylsulfonyl]-4-[3-(4-fluoro-benzyl)-1,2,4-thiadiazol-5-yl]piperazine]",84%,6.27
CC1CN(c2nc(Cc3ccc(F)cc3)ns2)CCN1C(=O)Cc1ccc(F)cc1 (centres unmarked) [compound 6],75%,–
"O=C(Cc1ccccc1)N1CCN(c2nc(Cc3ccc(F)cc3)ns2)CC1 [compound 1, 4-phenylacetyl-1-[3-(4-fluorobenzyl)-1,2,4-thiadiazol-5-yl]piperazine]",75%,6.82
"CC1CN(c2nc(Cc3ccc(F)cc3)ns2)CCN1S(=O)(=O)c1ccc(C(C)(C)C)cc1 (centres unmarked) [compound 54, 1-[4-tert-butylphenylsulfonyl]-4-[3-(4-fluorobenzyl)-1,2,4-thiadiazol-5-yl]-2-methylpiperazine]",60%,–
"CCOc1ccc(NC(=O)N2CCN(c3nc(Cc4ccc(F)cc4)ns3)CC2C)cc1 (centres unmarked) [compound 14, N-(4-ethoxyphenyl)-4-[3-(4-fluorobenzyl)-1,2,4-thiadiazol-5-yl]-2-methylpiperazine-1-carboxamide]",70%,5.76
"O=S(=O)(c1ccc2ccccc2c1)N1CCN(c2nc(Cc3ccc(Cl)cc3)ns2)CC1 [compound 52, 1-[2-naphtylsulfonyl]-4-[3-(4-chlorobenzyl)-1,2,4-thiadiazol-5-yl]piperazine]",104%,7.00
"Cc1ccccc1C(=O)NCCN1CCN(c2nc(Cc3ccc(F)cc3)ns2)CC1 [compound 99, 2-methyl-N-{2-[4-[3-(4-fluorobenzyl)-1,2,4-thiadiazol-5-yl]piperazin-1-yl]ethyl}benzamide]",97%,5.80
"CC1CN(c2nc(Cc3ccc(F)cc3)ns2)CCN1C(=O)c1ccccc1 (centres unmarked) [compound 126, 1-benzoyl-4-[3-(4-fluorobenzyl)-1,2,4-thiadiazol-5-yl]-2-methylpiperazine]",63%,6.68
"O=C(NCCN1CCN(c2nc(Cc3ccc(F)cc3)ns2)CC1)NCc1ccccc1 [compound 110, N-benzyl-N′-{2-[4-[3-(4-fluorobenzyl)-1,2,4-thiadiazol-5-yl]piperazin-1-yl]ethyl}urea]",77%,–
"COc1ccc(C(=O)N2CCN(c3nc(Cc4ccc(F)cc4)ns3)CC2C)cc1 (centres unmarked) [compound 118, 1-(4-methoxybenzoyl)-4-[3-(4-fluorobenzyl)-1,2,4-thiadiazol-5-yl]-2-methylpiperazine]",64%,7.04
"CC1CN(c2nc(Cc3ccc(F)cc3)ns2)CCN1C(=O)c1ccc(C(C)(C)C)cc1 (centres unmarked) [compound 128, 1-(4-tert-butylbenzoyl)-4-[3-(4-fluorobenzyl)-1,2,4-thiadiazol-5-yl]-2-methylpiperazine]",95%,6.62
"O=C(Cc1ccccc1)NCCN1CCN(c2nc(Cc3ccc(F)cc3)ns2)CC1 [compound 108, 2-phenyl-N-{2-[4-[3-(4-fluorobenzyl)-1,2,4-thiadiazol-5-yl]piperazin-1-yl]ethyl}acetamide]",63%,5.69
